Structures are written as SMILES.

The term IC50 denotes the concentration needed to halve the response being measured. One may read the melting point as the temperature of the solid-liquid transition. In general, half-life refers to the time in which the quantity being followed falls by half.

One data set has as its target CXCR3 (Homo sapiens (Human), UniProt P49682). Kind of data set: Receptor profiling: calcium flux (FLIPR TETRA) on Chem-1 cells expressing chemokine receptor. The format is cell-based. The following applies: antagonist activity, reference agonist at AC80. As to the method:
(§1) Measurement of Calcium Flux on Cells:
(§2) The experiments were carried out on the FLIPR TETRA® platform from Molecular Devices. After the basal level had been read, the compounds were added to the cells expressing the chemokine receptor of interest and the agonist activity was read at 10 seconds.
(§3) Each cell line expressing a chemokine receptor was established on the basis of the Chem-1 cell stably expressing the recombinant form of the chemokine receptor and also an associated G protein, with the aim of coupling the receptor to the calcium signalling pathway. 21 receptors belonging to the chemokine receptor family (CCRs and CXCRs) were analyzed. All the CXCR2 antagonists were tested in a dose-dependent manner and the concentration corresponding to 50% inhibition of the response was determined (IC50).
(Calcium assays in cells follow changes in intracellular calcium, usually with a dye or a luminescent sensor.)

Another data set deals with CCR4 (Homo sapiens (Human), UniProt P51679). The data set is described as above. Format: cell-based. On the set-up: key to IC50 CCR4: IA: Inactive. The following applies: antagonist activity, reference agonist at AC80. As to the method: as §1, §2, §3
The target in a further data set is CXCR2 receptor (Homo sapiens (Human), UniProt P25025). Kind of data set: β-arrestin 2 recruitment test, PathHunter HEK293-CXCR2 cells stimulated with CXCL8. The format is cell-based. The following applies: CXCL8 stimulation. As to the method:
(§4) The in vitro affinity of the compounds of the present invention for the CXCR1 and CXCR2 receptors was determined on a functional test of the β-arrestin recruitment type after receptor activation.
(§5) β-Arrestin Recruitment Assay:
(§6) “PathHunter HEK293-CXCR2” or “U2OS hCXCR1 β-arrestin” cells (DiscoveRx Corporation) were seeded overnight at 10 000 cells/well (384-well format) in 20 μl of Opti MEM I medium. A preincubation with the antagonist or the vehicle for 30 min at 37° C. and 5% CO2 was followed by 60 minutes of stimulation with CXCL8 at 37° C. and 5% CO2. The cells were then placed at ambient temperature for 30 minutes. The PathHunter detection reagent (DiscoveRx Corporation) was added. […] The data were analyzed by means of a non-linear curve procedure using the XLFit4 exploitation software (IDBS) and the IC50 values were determined.
(In general: Recruitment of arrestin is a read-out of receptor activation apart from second messengers.)

Another data set addresses CXCR1 receptor (Homo sapiens (Human), UniProt P25024). Kind of data set: β-arrestin 2 recruitment test, U2OS hCXCR1 β-arrestin cells stimulated with CXCL8. Format: cell-based. Conditions: CXCL8 stimulation. As to the method: as §4, §5, §6
Data set [1] is described as follows: Metabolic stabilities in hepatic microsomes. The following applies: pH 7.4; hepatic microsomes 0.5 mg/ml, compound 1 μM; read-out: Half-life time. Format: in vitro ADME. How it is done:
Hepatic microsomes (Becton Dickinson) were incubated at a protein concentration of 0.5 mg/ml in the reaction medium.
The reaction medium of the microsomes was composed of phosphate buffer, pH: 7.4 at 100 mM, of MgCl2 at 100 mM (50/50), of an […] composed of a mixture of […] (NADP) and of glucose-6-phosphate (G6P) at 1 mg/ml and of glucose-6-phosphate dehydroganase (G6PDH) at 4 U/ml. The compounds were tested at 1 μM (0.1% DMSO).
The samples of incubation medium after addition of the microsomes were taken at times 5, 10, 15, 30 and 60 minutes. At each time, the metabolic reaction was stopped by adding methanol (1 volume incubation medium/3 volumes of methanol). The disappearance of the parent product was measured by LC/MS/MS analysis. The time for which 50% of parent Product disappeared (T½) was calculated from the kinetics of disappearance of the parent product as a function of time.

Data set [2] relates to receptors of CXCR1 and CXCR2 type. The following applies: pseudo-irreversible dissociation, JPET 322:477-485, 2007; cited from earlier work.

Sequence of CXCR1 receptor (P25024 whole entry): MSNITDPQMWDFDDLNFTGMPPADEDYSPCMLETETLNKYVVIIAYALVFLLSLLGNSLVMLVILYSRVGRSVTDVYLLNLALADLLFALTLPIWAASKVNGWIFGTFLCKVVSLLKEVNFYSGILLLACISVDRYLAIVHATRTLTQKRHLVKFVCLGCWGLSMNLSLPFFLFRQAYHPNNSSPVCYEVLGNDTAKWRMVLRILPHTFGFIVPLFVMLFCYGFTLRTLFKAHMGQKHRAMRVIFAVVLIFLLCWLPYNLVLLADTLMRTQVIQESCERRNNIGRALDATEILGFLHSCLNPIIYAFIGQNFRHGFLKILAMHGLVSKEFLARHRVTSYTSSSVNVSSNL
Sequence of CXCR2 receptor (P25025 whole entry): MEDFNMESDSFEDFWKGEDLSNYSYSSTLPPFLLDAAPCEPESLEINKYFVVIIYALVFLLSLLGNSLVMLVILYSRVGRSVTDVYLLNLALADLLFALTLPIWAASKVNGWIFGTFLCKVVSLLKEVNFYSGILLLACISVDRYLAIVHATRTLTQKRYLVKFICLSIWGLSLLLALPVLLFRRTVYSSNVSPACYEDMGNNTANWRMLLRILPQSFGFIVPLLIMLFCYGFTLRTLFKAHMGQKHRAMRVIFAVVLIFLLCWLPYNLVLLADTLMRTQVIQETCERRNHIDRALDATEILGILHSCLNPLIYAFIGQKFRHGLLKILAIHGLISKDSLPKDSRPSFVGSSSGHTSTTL
Sequence of CXCR3 (P49682 whole entry): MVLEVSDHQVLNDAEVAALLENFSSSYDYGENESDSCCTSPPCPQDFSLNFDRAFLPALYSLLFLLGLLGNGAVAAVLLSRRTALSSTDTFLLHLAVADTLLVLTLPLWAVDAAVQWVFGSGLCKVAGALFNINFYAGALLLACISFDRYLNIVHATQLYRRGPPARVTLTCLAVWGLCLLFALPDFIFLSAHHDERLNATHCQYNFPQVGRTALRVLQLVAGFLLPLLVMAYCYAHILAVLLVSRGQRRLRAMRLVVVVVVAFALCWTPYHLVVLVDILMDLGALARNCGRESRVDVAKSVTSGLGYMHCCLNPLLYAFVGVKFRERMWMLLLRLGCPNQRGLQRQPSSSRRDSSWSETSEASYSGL
Sequence of CCR4 (P51679 whole entry): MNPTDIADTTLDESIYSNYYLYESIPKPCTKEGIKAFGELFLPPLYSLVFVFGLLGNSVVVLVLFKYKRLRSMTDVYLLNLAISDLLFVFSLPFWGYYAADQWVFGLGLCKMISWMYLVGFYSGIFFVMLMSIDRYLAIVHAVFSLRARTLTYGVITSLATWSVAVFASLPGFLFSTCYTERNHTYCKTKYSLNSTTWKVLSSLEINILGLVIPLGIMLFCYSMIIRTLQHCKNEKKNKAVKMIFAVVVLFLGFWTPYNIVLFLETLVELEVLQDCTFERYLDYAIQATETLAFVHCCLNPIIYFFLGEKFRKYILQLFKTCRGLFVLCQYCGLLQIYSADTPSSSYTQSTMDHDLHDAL

On to `COC(=O)[C@H]1CCCN1C(=O)c1cccc(Nc2c(N[C@@H](c3ccc(C)o3)C3(C)COC3)c(=O)c2=O)c1O` [Example 8, methyl (R)-1-[2-hydroxy-3-(2-{[(R)-(5-methylfuran-2-yl)-(3-methyloxetan-3-yl)methyl]amino}-3,4-dioxocyclobut-1-enylamino)benzoyl]pyrrolidine-2-carboxylate], for which the concentration for half-maximal inhibition (IC50) at CXCR3 is 240 nM; on CXCR2 receptor it was 37 nM; at CXCR1 receptor, 604 nM. Also, the “IC50 CCR4” value on CCR4 was “IA”.

For `Cc1ccc(C(Nc2c(Nc3cccc(C(=O)N(C)C)c3O)c(=O)c2=O)C2(CF)COC2)o1` (centres unmarked) [Example 2, 3-(2-{[(3-fluoromethyloxetan-3-yl)-(5-methyl-furan-2-yl)methyl}amino]-3,4-dioxocyclobut-1-enylamino)-2-hydroxy-N,N-dimethylbenzamide], the melting point lay within 186 to 188 °C. Besides, half-maximal inhibition on CXCR2 receptor (IC50) required 272 nM. This compound also yielded an IC50 at CXCR1 receptor of 1600 nM.

The compound `Cc1ccc(C(Nc2c(Nc3cccc4nn[nH]c34)c(=O)c2=O)C2(C)COC2)o1` (centres unmarked) [Example 23, 3-(3H-benzotriazol-4-ylamino)-4-{[(5-methylfuran-2-yl)-(3-methyloxetan-3-yl)methyl]amino}cyclobut-3-ene-1,2-dione] had a melting point of 178 to 180 °C.

For `Cc1ccc(C(Nc2c(Nc3cccc(S(=O)(=O)N(C)C)c3O)c(=O)c2=O)C2(C)COC2)o1` (centres unmarked) [Example 21, 2-hydroxy-N,N-dimethyl-3-(2-{[(5-methylfuran-2-yl)-(3-methyloxetan-3-yl)methyl]amino}-3,4-dioxocyclobut-1-enylamino)benzenesulfonamide], in data set [1], the half-life at 1 μM was determined as 7.7 min. The IC50 was 257 nM on CXCR2 receptor and 1440 nM against CXCR1 receptor.

`Cc1ccc(C(Nc2c(Nc3cccc(C(C)O)c3O)c(=O)c2=O)C2(C)COC2)o1` (centres unmarked) [Example 11, 3-[2-hydroxy-3-(1-hydroxyethyl)phenylamino]-4-{[(5-methylfuran-2-yl)-(3-methyloxetan-3-yl)methyl]amino}cyclobut-3-ene-1,2-dione] registered a melting point of 129 to 131 °C. Moreover, the IC50 on CXCR2 receptor was 549 nM. Moreover, the IC50 on CXCR1 receptor was determined as 6510 nM.

Regarding `COC(=O)C1CCCCN1C(=O)c1cccc(Nc2c(NC(c3ccc(C)o3)C3(C)COC3)c(=O)c2=O)c1` (centres unmarked), the melting point was 130 to 132 °C.

Regarding `Cc1ccc(C(Nc2c(Nc3cccc(C(=O)N(C)C)c3O)c(=O)c2=O)C2(C)COC2)o1` (centres unmarked) [Example 1, 2-hydroxy-N,N-dimethyl-3-(2-{[(5-methylfuran-2-yl)-(3-methyloxetan-3-yl)methyl]amino}-3,4-dioxocyclobut-1-enylamino)benzamide], the melting point was in the range of 196 to 198 °C.

As to `Cc1cc(C(Nc2c(Nc3cccc(C(=O)N(C)C)c3O)c(=O)c2=O)C2(C)COC2)oc1C` (centres unmarked) [Example 27, 3-(2-{[(4,5-dimethylfuran-2-yl)-(3-methyloxetan-3-yl)methyl]amino}-3,4-dioxocyclobut-1-enylamino)-2-hydroxy-N,N-dimethylbenzamide], the melting point was 207 to 209 °C. At CXCR2 receptor, this compound came in with a 50% inhibitory concentration (IC50) of 244 nM. Moreover, it took 1540 nM to reach half-maximal inhibition against CXCR1 receptor (IC50).

In the case of `CC[C@@H](Nc1c(Nc2cccc(C(=O)N(C)C)c2O)c(=O)c1=O)c1ccc(C)o1` [SCH-527123], the dissociation time result in data set [2] is given as “about 22 h”.

The compound `Cc1ccc(C(Nc2c(Nc3cccc(C(=O)O)c3O)c(=O)c2=O)C2(C)COC2)o1` (centres unmarked) [Example 4, 2-hydroxy-3-(2-{[(5-methylfuran-2-yl)-(3-methyloxetan-3-yl)methyl]amino}-3,4-dioxocyclobut-1-enylamino)benzoic acid] showed a melting point of 180 to 185 °C.

Consider `COC(=O)[C@@H]1CCCN1C(=O)c1cccc(Nc2c(NC(c3ccc(C)o3)C3(C)COC3)c(=O)c2=O)c1Cl` (stereo partly drawn) [Example 46, methyl (S)-1-[2-chloro-3-(2-{[(5-methylfuran-2-yl)-(3-methyloxetan-3-yl)methyl]amino}-3,4-dioxocyclobut-1-enylamino)benzoyl]pyrrolidine-2-carboxylate], for which the melting point lay within 148 to 158 °C.

In the case of `Cc1ccc([C@H](Nc2c(Nc3cccc(C(=O)N(C)C)c3O)c(=O)c2=O)C2(C)COC2)o1` [Example 50, 2-hydroxy-N,N-dimethyl-3-(2-{[((R)-5-methylfuran-2-yl)-(3-methyloxetan-3-yl)methyl]amino}-3,4-dioxocyclobut-1-enylamino)benzamide], the IC50 on CXCR3 was 700 nM.

In turn, `Cc1ccc(C(Nc2c(Nc3cccc(C(=O)N4CCC(O)C4)c3)c(=O)c2=O)C2(C)COC2)o1` (centres unmarked) [Example 31, 3-[3-(3-hydroxypyrrolidine-1-carbonyl)phenylamino]-4-{[(5-methylfuran-2-yl)-(3-methyloxetan-3-yl)methyl]amino}cyclobut-3-ene-1,2-dione] showed a melting point of 242 to 245 °C. In addition, 716 nM corresponded to half-maximal inhibition at CXCR2 receptor (IC50). This compound also yielded an IC50 at CXCR1 receptor of 3530 nM.

As for `Cc1ccc([C@H](Nc2c(Nc3ccc(Cl)c(C(=O)N(C)C)c3O)c(=O)c2=O)C2(C)COC2)o1` [Example 52, 6-chloro-2-hydroxy-N,N-dimethyl-3-(2-{[(R)-(5-methylfuran-2-yl)-(3-methyloxetan-3-yl)methyl]amino}-3,4-dioxocyclobut-1-enylamino)benzamide], the results for the IC50 against CXCR2 receptor and on CXCR1 receptor were 373 nM and 897 nM, respectively.

Consider `Cc1ccc([C@H](Nc2c(Nc3cccc(C(=O)N(C)CC(F)(F)F)c3O)c(=O)c2=O)C2(C)COC2)o1` [Example 48, 2-hydroxy-N-methyl-3-(2-{[(R)-(5-methylfuran-2-yl)-(3-methyloxetan-3-yl)methyl]amino}-3,4-dioxocyclobut-1-enylamino)-N-(2,2,2-trifluoroethyl)benzamide], for which the IC50 was 26 nM on CXCR2 receptor and 566 nM against CXCR1 receptor.

The compound `Cc1ccc(C(Nc2c(Nc3cccc(C(=O)N(C)C)c3O)c(=O)c2=O)C2(C)CN(C(=O)OC(C)(C)C)C2)o1` (centres unmarked) [Example 26, tert-butyl 3-[[2-(3-dimethylcarbamoyl-2-hydroxyphenylamino)-3,4-dioxo-cyclobut-1-enylamino]-(5-methylfuran-2-yl)methyl]-3-methylazetidine-1-carboxylate] returned a melting point of 162 to 165 °C.

In the case of `CC(C)c1coc(C(Nc2c(Nc3cccc(C(=O)N(C)C)c3O)c(=O)c2=O)C2(C)COC2)c1` (centres unmarked) [Example 38, 2-hydroxy-N,N-dimethyl-3-(2-{[(4-isopropylfuran-2-yl)-(3-methyloxetan-3-yl)methyl]amino}-3,4-dioxocyclobut-1-enylamino)benzamide], the IC50 was found to be 25 nM against CXCR2 receptor and 322 nM on CXCR1 receptor.

In turn, `Cc1ccc(C(Nc2c(Nc3cccc(C(=O)N4CCC[C@@H]4C(=O)OC(C)(C)C)c3O)c(=O)c2=O)C2(C)COC2)o1` (stereo partly drawn) [Example 7, (R)-1-[2-hydroxy-3-(2-{[(5-methylfuran-2-yl)-(3-methyloxetan-3-yl)methyl]amino}-3,4-dioxocyclobut-1-enylamino)benzoyl]pyrrolidine-2-carboxylic acid tert-butyl ester] returned a melting point of 162 to 164 °C. Further, the IC50 at CXCR2 receptor came to 100 nM. The compound also showed an IC50 against CXCR1 receptor of 2410 nM.

For `COc1cccc(C(Nc2c(Nc3cccc(C(=O)N(C)C)c3O)c(=O)c2=O)C2(C)COC2)c1` (centres unmarked) [Example 28, 3-(2-{[(3-methyloxetan-3-yl)-(3-methoxyphenyl)methyl]-amino}-3,4-dioxocyclobut-1-enylamino)-2-hydroxy-N,N-dimethylbenzamide], the IC50 worked out at 475 nM at CXCR2 receptor and 5540 nM on CXCR1 receptor.
